Two compounds from patent US20220133753A1, “COMPOSITIONS AND METHODS USEFUL FOR TREATING DISEASES CHARACTERIZED BY INSUFFICIENT PANTOTHENATE KINASE ACTIVITY” (Comet Therapeutics, Inc., priority 2016, published 2022) can be followed below.

Series [1] relates to MCAD patient fibroblast cell lines. Description: Mitochondrial stress test (Seahorse), reserve capacity of MCAD patient fibroblasts. The series is classed as cell-based, human. The following applies: MCAD fibroblasts, relative to vehicle treated control. An excerpt:
Medium-chain acyl-CoA dehydrogenase (MCAD) deficiency is a condition in which the body's capacity to break down fats with medium chain lengths is impaired, caused by mutations in the ACADM gene, which can lead to hypoglycaemia, and liver dysfunction. Left untreated, it can lead to seizures, coma and other serious health problems, with acute symptoms often preceded by extended periods of fasting or an infection with vomiting. Impaired metabolism were observed through functional measurements of respiration using a Seahorse XF Analyzer, where oxygen consumption rate (OCR) reflects oxidative respiration.
A study was performed to test the Rescue potential of S-acetyl-4′-phosphopantetheine in primary patient fibroblast model of MCAD deficiency. MCAD patient fibroblast cell lines (genotyped as containing homozygous K304E mutations in ACADM) were subject to a mitochondrial stress test according to standard protocol with a cell seeding density of 30 k cells/well (n=2). Rescue potential was assessed by increase in reserve capacity: defined as the difference between basal and maximal OCR, controlled by subtracting values for non-mitochondiral respiration (after rotenone treatment). The study was performed in two replicates.

In series [2] the test system is primary human fibroblasts from healthy controls, MCAD deficiency and PA deficiency patients. The experiment in a line: Mitochondrial stress test (Seahorse), basal OCR of primary fibroblasts. The series is classed as cell-based. The following applies: 24 h treatment. The text has this: A study was thus performed to test the ability of S-acetyl-(S)-4′-phosphopantetheine to facilitate increased basal oxidative respiration in primary fibroblast cultures from patients diagnosed with MCAD deficiency and PA deficiency. Impaired metabolism were observed through functional measurements of respiration using a Seahorse XF Analyzer, where oxygen consumption rate (OCR) reflects oxidative respiration.
Patient derived cell lines were subject to a mitochondrial stress test according to standard protocol with a cell seeding density of 30 k cells/well (n=2) in glucose free media. After incubation with various concentrations of S-acetyl-4′-phosphopantetheine or vehicle for 24 h, rescue potential was assessed by increase in basal OCR (average of six readings between 30-70 min), relative to control: basal OCR from vehicle treatment was set to 1.0. […] Experiment was performed in two replicates: systematically outlying values caused by seeding errors, port failures, or values within background were excluded from analysis.

Series [3] relates to RNAi knock-down of CG7461 drosophila. The experiment in a line: Drosophila model of VLCAD deficiency, survival in starvation. Conditions: 5 mM, fed for 24 h. The class given is in vivo. The text has this:
The drosophila gene CG7461 is considered to be a good ortholog of ACADVL, as determined by Fly DIOPT (DRSC Integrative Ortholog Prediction Tool). RNAi approaches are an established method of modelling various diseases, and the GD stock library at the Vienna Drosophila Resource Centre (VDRC) contains a knock-down strain for CG7461 (VDRC ID 28028). Down-regulation of CG7461 by RNAi, results in reduced viability when metabolically challenged with starvation.
Five virgin females from Act5C-GAL4 (RNAi expression driver line) and ten virgin males from UAS-GD 28028 (RNAi knock-down of CG7461) were crossed, to generate mutant progeny. In a similar manner, control flies were generated for the RNAi driver line (Gal4 control: Act5C-GAL4×GD 60000) and the upstream activating sequence (UAS control: UAS-GD 28028×Iso 31). From their offspring, 3-day old adult flies were allowed to feed for 24 h on glucose with and without 5 mM (S)-acetyl-4′-phosphopantetheine, then incubated on 2% agar medium without media. Dead flies were counted every 6 hours (up 90 hours) to obtain % survival over time. Rescue potential was assessed by the ability to survive in starvation conditions, expressed as the area under the curve (calculated by trapezium rule) of the cumulative frequency, relative to each control strain.

In series [4] the test system is CG34404 down-regulated drosophila. The series is classed as in vivo. An excerpt:
The drosophila gene CG34404 is considered to be a good ortholog of both MCCC1 and MCCC2, as determined by Fly DIOPT (DRSC Integrative Ortholog Prediction Tool). RNAi approaches are an established method of modelling various diseases, and the KK stock library at the Vienna Drosophila Resource Centre (VDRC) contains a knock-down strain for CG34404 (VDRC ID 103335). Down-regulation of CG34404 by RNAi, causes developmental delay.
Five virgin females from UAS-KK 103335 (RNAi knock-down of CG34404) and ten virgin males from Act5C-GAL4 (heterozygous RNAi expression driver line with CyO balancer) were crossed, and allowed to lay for a period of 24 h in vials containing drosophila media with and without S-acetyl-4′-phosphopantetheine. Rescue potential was assessed by the number of eclosed male mutant or control flies every 6 h, as a percentage of total eclosed flies of each genotype, expressed as the AAUC (calculated by trapezium rule) of the cumulative eclosion relative to the control strain, as shown in FIG. 22A. Further, the region of relative AUCs are plotted in FIG. 22B under treatment conditions.

Series [5] concerns Drosophila S2 cells. Description: HoPan treatment of Drosophila S2 cells in combination with CoA or 4′-phosphopantetheine. The class given is cell-based. Conditions: HoPan treated S2 cells. The protocol: HoPan treatment of Drosophila S2 Cell in combination with CoA or 4′-phosphopantetheine treatment: Drosophila Schneider's S2 cells were maintained at standard conditions as explained above. Cells in the exponential phase of growth were used for all the experiments. Different indicated concentrations of CoA or 4′-phosphopantetheine (deuterium labelled PPanSH(D4) or unlabeled PPanSH) were added to S2 cells either in the presence or absence of 0.5 mM HoPan (Zhou Fang Pharm Chemical, China) for 48 h. Similarly, Drosophila S2 cells were treated with different concentrations of PPanSH(D4) at either 25° C. or 4° C. and cells were then harvested at various time points to access transport of PPanSH(D4). Stable isotope labelled PPanSH containing 4 deuterium atoms was purchased from Syncom (Groningen, The Netherlands) as a sodium salt (chemical structure is provided in FIG. 13A). As a read out cell count, intracellular total CoA and PPanSH levels (both labelled and unlabeled levels wherever appropriate) and histone acetylation levels were analyzed as explained below.
(§1) Drosophila S2 Cell Immunofluorescence Staining: For immunofluorescence Drosophila S2 cells were seeded on Poly-L-Lysine coated (Sigma-Aldrich) glass microscope slides and allowed to settle for 45 min. Cells were fixed with 3.7% formaldehyde (Sigma Aldrich) for 20 min, washed briefly with PBS+0.1% Triton-X-100 (Sigma Aldrich) and permeabilized with PBS+0.2% Triton-X-100 for 20 min. The slides were incubated in primary antibody (rabbit anti-AcLys, Cell Signaling Cat No: 9441, 1:500) to visualize histone acetylation levels in PBS+0.1% Triton-X-100 overnight and after an additional washing step in PBS+0.1% Triton-X-100 they were incubated in secondary goat anti-rabbit-Alexa488 antibody (Molecular Probes) for two hours at room temperature (RT). F-actin was detected with Rhodamin-Phalloidin (20 U/ml)(Invitrogen) and DNA by staining with DAPI (0.2 ug/ml) (Thermo Scientific). Finally the samples were mounted in 80% glycerol and analyzed using a Leica fluorescence microscope with Leica software. Adobe Photoshop and Illustrator (Adobe Systems Incorporated, San Jose, Calif., USA) were used for image assembly.

Series [6] concerns dPANK/fbl RNAi treated Drosophila S2 cells. The experiment in a line: dPANK/fbl RNA interference in Drosophila S2 cells, rescue by CoA or 4′-phosphopantetheine. The class given is cell-based. Conditions: compound added to the medium; for histone (protein) acetylation of dPANK/fbl RNAi treated S2 cells: immunofluorescence. The method, then:
Drosophila S2 Cell Culture, RNA Interference, and CoA and 4′-phosphopantetheine treatment: Drosophila Schneider's S2 cells were maintained at 25° C. in Schneider's Drosophila medium (Invitrogen) supplemented with 10% heat inactivated fetal calf serum (Gibco) and antibiotics (penicillin/streptomycin, Invitrogen) under laboratory conditions. Synthesis of RNAi constructs and RNA interference (dsRNA) treatment was carried out as described previously (Siudeja K et al, EMBO Mol Med 3, 755-766 (2011)). Non-relevant (human gene; hMAZ) dsRNA was used as control. The cells were incubated for 4 days to induce an efficient knock-down. Cells were then subcultured, with or without CoA (Sigma-Aldrich, Cat. No: C4780—which is used for all the experiments wherever stated below) or 4′-phosphopantetheine (PPanSH) at different concentrations and were maintained for additional 3 days until analysis for rescue efficiency of the compounds was performed. The stock solutions of compounds were made in sterile water and stored in −20° C. until use.
as §1

Series [7] in a line: Stability of CoA in PBS, medium and fetal calf serum by HPLC. Conditions: formed from CoA in serum, time course of 6 hours.
Description: HPLC sample preparation protocol for total CoA and 4′-phosphopantetheine measurement: Samples were briefly washed with ice-cold PBS solution. Samples were sonicated thoroughly in 100 μl ice-cold PBS and centrifuged for 10-15 min at 4° C. to collect supernatant. Tris(2-carboxyethyl)phosphine hydrochloride (Sigma) (50 mM; 10 ul) was added to 50 μl sample supernatant and were incubated at room temperature for 15 min after vortex-mixing. Saturated ammonium sulfate solution or Millipore 3KD centrifugal filter units were used to remove proteins. The samples were centrifuged at 14,000 rpm for 15 min at 4° C. The clear supernatant (50 ul) or the filtrate was derivatized with 45 ul of ammonium 7-flurobenzo-2-oxa-1,3-doazole-4-sulfonate (SBD-F, Sigma) (1 mg/ml in borax buffer—0.1M containing 1 mM EDTA disodium, pH 9.5), and 5 ul ammonia solution (12.5% v/v, Merck Millipore) at 60° C. for 1 h. The derivatized samples were placed in a refrigerated autosampler (10° C.) in the Shimadzu HPLC system, and injected for total CoA and PPanSH analysis using optimized chromatographic separation conditions combined with fluorescence detection (described below).
Chromatography separation condition: Chromatographic analysis was performed with a Shimadzu LC-10AC liquid chromatograph, SCL-10A system controller, SIL-10AC automatic sample injector and LC-10AT solvent delivery system. Shimadzu RF-20Axs fluorescence detector was used for derivatized sample extract analysis. The fluorescence detector was set at excitation and emission wavelengths of 385 nm and 515 nm, respectively. Signal output was collected digitally with Shimadzu Labsolution software and post run analysis was performed. […] The two mobile phases consisted of A: 100 mM ammonium acetate buffer (pH 4.5) and B: acetonitrile. Flow rate was maintained at 0.8 ml/min with a slow gradient elution: 0% B till 7 min, 20% B at 20 min, 20% B at 22 min, 50% B at 23 min, maintained at 50% B till 27 min, 0% B at 28 min and 7-10 min for column re-equilibration.
The stability of CoA in PBS, serum-free medium, medium containing fetal calf (FCS) serum and in fetal calf serum was measured.
The test system of series [8] is HEK293 cells. Description: HoPan treatment of mammalian HEK293 cells in combination with CoA or 4′-phosphopantetheine. Conditions: HoPan treated HEK293 cells, compound added to the medium. The series is classed as cell-based, human. The method, then:
HoPan treatment of mammalian HEK293 Cells in combination with CoA and 4′-phosphopantetheine treatment: HEK293 cells were maintained in dMEM (Invitrogen) supplemented with 10% fetal calf serum (Gibco) and antibiotics (penicillin/streptomycin, Invitrogen). For HoPan treatment, cells were cultured in custom made dMEM without vitamin B5 (Thermo Scientific) supplemented with dialyzed FCS (Thermo Scientific). CoA or PPanSH was added to HEK293 cells for the final concentration of 25 uM, either in the presence or absence of HoPan (0.5 mM) for 4 days, followed by analysis for phenotype and rescue efficiency of CoA and PPanSH.
Western blot analysis and Antibodies: For Western blot analysis, cells were collected and washed with phosphate buffer saline (PBS), followed by centrifugation. The cells were lysed and sonicated in 1X Laemmli Sample Buffer and boiled for 5 min with 5% β-mercaptoethanol (Sigma). Protein content was determined using DC protein assay (BioRad). Equal amounts of protein were loaded on a 10 or 12.5% SDS-PAGE gel, transferred onto PVDF membranes and blocked with 5% milk in PBS/0.1% Tween, followed by overnight incubation with primary antibodies. The primary antibodies used were: rabbit-anti dPANK/fbl, 1:4000 Eurogentec custom made as described previously5, mouse anti-tubulin (Sigma Aldrich Cat no: T5168, 1:5000), anti-acetyl-Histone3 (Active Motif Cat no: 39139, 1:2000), anti GAPDH (Fitzgerald Cat no: 10R-G109a, 1:10000), rabbit anti COASY (Abcam Cat no: AB129012, 1:1000). Appropriate HRP-conjugated secondary antibodies (Amersham) were used and detection was performed using enhanced chemi-luminescence (Pierce cat nog: 32106) and Amersham hyperfilm (GE Healthcare). Band intensities were quantified with Image-studio software.

As for S-acetyl-4′-phosphopantetheine, the “spare respiratory capacity (reserve capacity)” value in series [1] is listed as “improved spare respiratory capacity”. The “effect on basal OCR in patient fibroblasts compared with healthy controls” value in series [2] (MCAD and PA patient fibroblasts) is “observed more strongly”. In addition, the “basal OCR levels” value in series [2] (primary fibroblasts, relative to vehicle controls) is “consistently elevated”. For the same compound, the “ability to survive starvation relative to control flies (AUC of cumulative survival)” value in series [3] is listed as “partially recovered towards control levels”; in series [3] (listed as (S)-acetyl-4′-phosphopantetheine) it was “partially recovered”. In series [4] (2 mM in drosophila media), the “reduction of the observed developmental delay” value amounted to 27 cumulative fly days. In addition, the toxicity in drosophila result in series [4] (in vivo) was “some toxicity”.
In the case of `CC(C)(COP(=O)(O)O)[C@@H](O)C(=O)NCCC(=O)NCCS` [4′-phosphopantetheine], in series [5] (compound added to the medium), the “rescue of HoPan-induced decrease in cell count” value is given as “rescued” and the “rescue of HoPan-induced histone acetylation defect” value is “rescued the histone acetylation defect”. Further, the “rescue of HoPan-induced histone acetylation defect” value in series [5] (compound added to the medium, listed as PpanSH) is “rescues acetylation defects”. In addition, the “intracellular levels of 4′-phosphopantetheine” value in series [5] (external supplementation, HPLC) is recorded as “significantly increased”. For the same compound, in series [6], the “cell count of dPANK/fbl RNAi treated S2 cells” value was “rescued” and the “histone (protein) acetylation of dPANK/fbl RNAi treated S2 cells” value is given as “rescued the histone acetylation defect”. For the same compound, the “histone (protein) acetylation of dPANK/fbl RNAi treated S2 cells” value in series [6] (listed as PpanSH) is “rescues acetylation defects”. Also, in series [7], the “stability of 4′-phosphopantetheine in serum” value is listed as “stable”. Further, in series [8], the “rescue of HoPan-induced impaired histone acetylation” value is recorded as “rescued” and the “rescue of HoPan-induced reduction in cell count” value is on record as “rescued”. Also, the “intracellular CoA level” value in series [8] (HPLC) was “rescued”.
